Assay: Alkali-resistant solubility test (filtration of dyestuff in alkali solution)
Assay type: physicochemical
Conditions: aqueous alkali solution (Na2SiO2 and NaOH), aqueous buffer; Na2SiO2 50°Be′ = 100 g/L, NaOH 38°Be′ = 30 ml/L; filtered through No. 1 filter paper
Experimental: First, the dyestuffs of the formula (A) and the formula (1), taken with proper amounts in accordance to a preliminary test, are respectively dissolved in water. The alkali solution including 100 g/L 50°Be′ Na2SiO2 and 30 ml/L 38°Be′ NaOH is added therein, respectively. The mixture samples respectively are filtered through the No. 1 filter paper of Toyo Rosh Kaisha, Ltd. in order to estimate how many solids are residual and then to determine the alkali-resistant solubility.

**Q.** For `CCN(c1cccc(S(=O)(=O)CCOS(=O)(=O)O)c1)c1nc(Nc2cc(S(=O)(=O)O)cc3c2[O][Cu-]24[O]C(=O)c5ccc(S(=O)(=O)O)cc5[N]2N=C(c2ccccc2)N=[N+]34)nc(SCC(=O)O)n1` (stereo not shown) [formula (1)], which solubility is on record?
**A.** > 70 mg/mL
